Patent US20210045385A1, “PYRIDAZINONE-SUBSTITUTED KETOXIMES AS HERBICIDES” (FMC Corporation, priority 2018, published 2021)

Key:
Type in all cases: in vivo
[1] = system: Italian ryegrass (Lolium multiflorum); test: Test A preemergence, visual plant response rating; settings: for Ryegrass, Italian plant response rating: 125 g ai/ha, preemergence, 0 to 100 scale, 0 no effect, 100 complete control; for Ryegrass, Italian plant response rating (0 to 100 scale): 500 g ai/ha Preemergence, approx. 10 days
Method in brief: (§1)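 Ratings 0–100 (100 = complete control), visual, vs untreated controls at ~10 days. Application pre- or postemergence; solvent mixture with surfactant; loam/sand medium.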

[2] = system: barnyardgrass (Echinochloa crus-galli); test: Test A preemergence, visual plant response rating; settings: for Barnyardgrass plant response rating: 125 g ai/ha, preemergence, 0 to 100 scale, 0 no effect, 100 complete control; for Barnyardgrass plant response rating (0 to 100 scale): 500 g ai/ha Preemergence, approx. 10 days
Method in brief: as §1

[3] = system: foxtail, giant (giant foxtail, Setaria faberii); test: Test A preemergence, visual plant response rating; settings: for Foxtail, Giant plant response rating: 125 g ai/ha, preemergence, 0 to 100 scale, 0 no effect, 100 complete control; for Foxtail, Giant plant response rating (0 to 100 scale): 500 g ai/ha Preemergence, approx. 10 days
Method in brief: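 Preemergence: seeds in loam/sand blend given directed soil spray of compound in non-phytotoxic solvent with surfactant. Postemergence: plants 2–10 cm, one- to two-leaf stage, sprayed with same formulation. Visual injury rated vs untreated controls after ~10 days in greenhouse, 0 (no effect) to 100 (complete control).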

[4] = system: kochia (Kochia scoparia); test: Test A preemergence, visual plant response rating; settings: for Kochia plant response rating: 125 g ai/ha, preemergence, 0 to 100 scale, 0 no effect, 100 complete control; for Kochia plant response rating (0 to 100 scale): 500 g ai/ha Preemergence, approx. 10 days
Method in brief: as §1

[5] = system: pigweed (Amaranthus retroflexus); test: Test A preemergence, visual plant response rating; settings: for Pigweed plant response rating: 125 g ai/ha, preemergence, 0 to 100 scale, 0 no effect, 100 complete control; for Pigweed plant response rating (0 to 100 scale): 500 g ai/ha Preemergence, approx. 10 days
Method in brief: as §1

[6] = system: ragweed (common ragweed, Ambrosia elatior); test: Test A preemergence, visual plant response rating; settings: for Ragweed plant response rating: 125 g ai/ha, preemergence, 0 to 100 scale, 0 no effect, 100 complete control; for Ragweed plant response rating (0 to 100 scale): 500 g ai/ha Preemergence, approx. 10 days
Method in brief: as §1

[7] = system: Italian ryegrass (Lolium multiflorum); test: Test A postemergence, visual plant response rating; settings: for Ryegrass, Italian plant response rating (0 to 100 scale): 500 g ai/ha, postemergence, 0 is no effect, 100 is complete control; for Ryegrass, Italian plant response rating: Postemergence, 125 g ai/ha, 0 to 100 scale (0 no effect, 100 complete control)
Method in brief: as §1

[8] = system: barnyardgrass (Echinochloa crus-galli); test: Test A postemergence, visual plant response rating; settings: for Barnyardgrass plant response rating (0 to 100 scale): 500 g ai/ha, postemergence, 0 is no effect, 100 is complete control; for Barnyardgrass plant response rating: Postemergence, 125 g ai/ha, 0 to 100 scale (0 no effect, 100 complete control)
Method in brief: as §1

[9] = system: blackgrass (Alopecurus myosuroides); test: Test A postemergence, visual plant response rating; settings: for Blackgrass plant response rating (0 to 100 scale): 500 g ai/ha, postemergence, 0 is no effect, 100 is complete control; for Blackgrass plant response rating: Postemergence, 125 g ai/ha, 0 to 100 scale (0 no effect, 100 complete control)
Method in brief: as §1

[10] = system: corn (Zea mays); test: Test A postemergence, visual plant response rating; settings: for Corn plant response rating (0 to 100 scale): 500 g ai/ha, postemergence, 0 is no effect, 100 is complete control; for Corn plant response rating: Postemergence, 125 g ai/ha, 0 to 100 scale (0 no effect, 100 complete control)
Method in brief: as §1

[11] = system: foxtail, giant (giant foxtail, Setaria faberii); test: Test A postemergence, visual plant response rating; settings: for Foxtail, Giant plant response rating (0 to 100 scale): 500 g ai/ha, postemergence, 0 is no effect, 100 is complete control; for Foxtail, Giant plant response rating: Postemergence, 125 g ai/ha, 0 to 100 scale (0 no effect, 100 complete control)
Method in brief: as §1

[12] = system: galium (catchweed bedstraw, Galium aparine); test: Test A postemergence, visual plant response rating; settings: for Galium plant response rating (0 to 100 scale): 500 g ai/ha, postemergence, 0 is no effect, 100 is complete control; for Galium plant response rating: Postemergence, 125 g ai/ha, 0 to 100 scale (0 no effect, 100 complete control)
Method in brief: as §1

[13] = system: kochia (Kochia scoparia); test: Test A postemergence, visual plant response rating; settings: for Kochia plant response rating (0 to 100 scale): 500 g ai/ha, postemergence, 0 is no effect, 100 is complete control; for Kochia plant response rating: Postemergence, 125 g ai/ha, 0 to 100 scale (0 no effect, 100 complete control)
Method in brief: as §1

[14] = system: pigweed (Amaranthus retroflexus); test: Test A postemergence, visual plant response rating; settings: for Pigweed plant response rating (0 to 100 scale): 500 g ai/ha, postemergence, 0 is no effect, 100 is complete control; for Pigweed plant response rating: Postemergence, 125 g ai/ha, 0 to 100 scale (0 no effect, 100 complete control)
Method in brief: as §1

[15] = system: ragweed (common ragweed, Ambrosia elatior); test: Test A postemergence, visual plant response rating; settings: for Ragweed plant response rating (0 to 100 scale): 500 g ai/ha, postemergence, 0 is no effect, 100 is complete control; for Ragweed plant response rating: Postemergence, 125 g ai/ha, 0 to 100 scale (0 no effect, 100 complete control)
Method in brief: as §1

[16] = system: wheat (Triticum aestivum); test: Test A postemergence, visual plant response rating; settings: for Wheat plant response rating (0 to 100 scale): 500 g ai/ha, postemergence, 0 is no effect, 100 is complete control; for Wheat plant response rating: Postemergence, 125 g ai/ha, 0 to 100 scale (0 no effect, 100 complete control)
Method in brief: as §1

[17] = system: barnyardgrass (Echinochloa crus-galli); test: Test B flooded paddy test, visual plant response rating; settings: 250 g ai/ha, Flood, applied to paddy water, 2-leaf stage, evaluated after 13 to 15 days
Method in brief: (§2)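 Rice, umbrella sedge, ducksalad and barnyardgrass grown to 2-leaf stage; pots flooded 3 cm above soil and compound applied directly to paddy water, depth maintained.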

[18] = system: ducksalad (Heteranhera limosa); test: as above; settings: 250 g ai/ha, Flood, applied to paddy water, 2-leaf stage, evaluated after 13 to 15 days
Method in brief: as §2

[19] = system: rice (Oryza sativa); test: as above; settings: 250 g ai/ha, Flood, applied to paddy water, 2-leaf stage, evaluated after 13 to 15 days
Method in brief: as §2

[20] = system: sedge, umbrella (small-flower umbrella sedge, Cyperus difformis); test: as above; settings: 250 g ai/ha, Flood, applied to paddy water, 2-leaf stage, evaluated after 13 to 15 days
Method in brief: as §2

CO/N=C(/c1ccccc1F)c1c(O)c(C)nn(C)c1=O [Compound 62]
Ryegrass, Italian plant response rating [1]: 10 | Ryegrass, Italian plant response rating (0 to 100 scale) [1]: 40 | Barnyardgrass plant response rating [2]: 0 | Barnyardgrass plant response rating (0 to 100 scale) [2]: 0 | Foxtail, Giant plant response rating [3]: 0 | Foxtail, Giant plant response rating (0 to 100 scale) [3]: 0 | Kochia plant response rating [4]: 0 | Kochia plant response rating (0 to 100 scale) [4]: 0 | Pigweed plant response rating [5]: 0 | Pigweed plant response rating (0 to 100 scale) [5]: 0 | Ragweed plant response rating [6]: 0 | Ragweed plant response rating (0 to 100 scale) [6]: 30 | Ryegrass, Italian plant response rating (0 to 100 scale) [7]: 20 | Ryegrass, Italian plant response rating [7]: 0 | Barnyardgrass plant response rating (0 to 100 scale) [8]: 0 | Barnyardgrass plant response rating [8]: 0 | Blackgrass plant response rating (0 to 100 scale) [9]: 10 | Blackgrass plant response rating [9]: 10 | Corn plant response rating (0 to 100 scale) [10]: 0 | Corn plant response rating [10]: 0 | Foxtail, Giant plant response rating (0 to 100 scale) [11]: 10 | Foxtail, Giant plant response rating [11]: 0 | Galium plant response rating (0 to 100 scale) [12]: 70 | Galium plant response rating [12]: 20 | Kochia plant response rating (0 to 100 scale) [13]: 20 | Kochia plant response rating [13]: 0 | Pigweed plant response rating (0 to 100 scale) [14]: 30 | Pigweed plant response rating [14]: 10 | Ragweed plant response rating (0 to 100 scale) [15]: 40 | Ragweed plant response rating [15]: 20 | Wheat plant response rating (0 to 100 scale) [16]: 0 | Wheat plant response rating [16]: 0 | Plant response rating, Barnyardgrass (0 to 100 scale, 0 is no effect, 100 is complete control) [17]: 0 | Plant response rating, Ducksalad (0 to 100 scale, 0 is no effect, 100 is complete control) [18]: 0 | Plant response rating, Rice (0 to 100 scale, 0 is no effect, 100 is complete control) [19]: 0 | Plant response rating, Sedge, Umbrella (0 to 100 scale, 0 is no effect, 100 is complete control) [20]: 0

CON=C(c1cccc(F)c1)c1c(O)c(C)nn(C)c1=O [Compound 64]
Ryegrass, Italian plant response rating [1]: 30 | Ryegrass, Italian plant response rating (0 to 100 scale) [1]: 60 | Barnyardgrass plant response rating [2]: 0 | Barnyardgrass plant response rating (0 to 100 scale) [2]: 0 | Foxtail, Giant plant response rating [3]: 0 | Foxtail, Giant plant response rating (0 to 100 scale) [3]: 0 | Kochia plant response rating [4]: 0 | Kochia plant response rating (0 to 100 scale) [4]: 0 | Pigweed plant response rating [5]: 0 | Pigweed plant response rating (0 to 100 scale) [5]: 10 | Ragweed plant response rating [6]: 10 | Ragweed plant response rating (0 to 100 scale) [6]: 20 | Ryegrass, Italian plant response rating (0 to 100 scale) [7]: 70 | Ryegrass, Italian plant response rating [7]: 50 | Barnyardgrass plant response rating (0 to 100 scale) [8]: 20 | Barnyardgrass plant response rating [8]: 20 | Blackgrass plant response rating (0 to 100 scale) [9]: 20 | Blackgrass plant response rating [9]: 0 | Corn plant response rating (0 to 100 scale) [10]: 0 | Corn plant response rating [10]: 0 | Foxtail, Giant plant response rating (0 to 100 scale) [11]: 10 | Foxtail, Giant plant response rating [11]: 0 | Galium plant response rating (0 to 100 scale) [12]: 80 | Galium plant response rating [12]: 70 | Kochia plant response rating (0 to 100 scale) [13]: 60 | Kochia plant response rating [13]: 20 | Pigweed plant response rating (0 to 100 scale) [14]: 40 | Pigweed plant response rating [14]: 20 | Ragweed plant response rating (0 to 100 scale) [15]: 50 | Ragweed plant response rating [15]: 20 | Wheat plant response rating (0 to 100 scale) [16]: 0 | Wheat plant response rating [16]: 0 | Plant response rating, Barnyardgrass (0 to 100 scale, 0 is no effect, 100 is complete control) [17]: 0 | Plant response rating, Ducksalad (0 to 100 scale, 0 is no effect, 100 is complete control) [18]: 0 | Plant response rating, Rice (0 to 100 scale, 0 is no effect, 100 is complete control) [19]: 0 | Plant response rating, Sedge, Umbrella (0 to 100 scale, 0 is no effect, 100 is complete control) [20]: 0

CON=C(c1cc(Cl)ccc1C)c1c(O)c(C)nn(C)c1=O [Compound 65]
Ryegrass, Italian plant response rating [1]: 0 | Ryegrass, Italian plant response rating (0 to 100 scale) [1]: 30 | Barnyardgrass plant response rating [2]: 20 | Barnyardgrass plant response rating (0 to 100 scale) [2]: 50 | Foxtail, Giant plant response rating [3]: 20 | Foxtail, Giant plant response rating (0 to 100 scale) [3]: 40 | Kochia plant response rating [4]: 0 | Kochia plant response rating (0 to 100 scale) [4]: 30 | Pigweed plant response rating [5]: 50 | Pigweed plant response rating (0 to 100 scale) [5]: 100 | Ragweed plant response rating [6]: 20 | Ragweed plant response rating (0 to 100 scale) [6]: 100 | Ryegrass, Italian plant response rating (0 to 100 scale) [7]: 90 | Ryegrass, Italian plant response rating [7]: 50 | Barnyardgrass plant response rating (0 to 100 scale) [8]: 40 | Barnyardgrass plant response rating [8]: 30 | Blackgrass plant response rating (0 to 100 scale) [9]: 30 | Blackgrass plant response rating [9]: 10 | Corn plant response rating (0 to 100 scale) [10]: 0 | Corn plant response rating [10]: 0 | Foxtail, Giant plant response rating (0 to 100 scale) [11]: 70 | Foxtail, Giant plant response rating [11]: 30 | Galium plant response rating (0 to 100 scale) [12]: 90 | Galium plant response rating [12]: 70 | Kochia plant response rating (0 to 100 scale) [13]: 80 | Kochia plant response rating [13]: 70 | Pigweed plant response rating (0 to 100 scale) [14]: 90 | Pigweed plant response rating [14]: 90 | Ragweed plant response rating (0 to 100 scale) [15]: 80 | Ragweed plant response rating [15]: 60 | Wheat plant response rating (0 to 100 scale) [16]: 20 | Wheat plant response rating [16]: 0 | Plant response rating, Barnyardgrass (0 to 100 scale, 0 is no effect, 100 is complete control) [17]: 0 | Plant response rating, Ducksalad (0 to 100 scale, 0 is no effect, 100 is complete control) [18]: 0 | Plant response rating, Rice (0 to 100 scale, 0 is no effect, 100 is complete control) [19]: 0 | Plant response rating, Sedge, Umbrella (0 to 100 scale, 0 is no effect, 100 is complete control) [20]: 0
